“Also recorded” adds a separate entry of the source.
Key:
[1] = six in vitro and one in vivo mutagenicity assays; cited from earlier work
[2] = tested on: Salmonella typhirmurium strains; conditions: Salmonella typhimurium TA 98 and TA 100; cited from earlier work
[3] = tested on: isolated mouse islets; experiment: glucose-stimulated insulin secretion from isolated mouse islets; format: cell-based; conditions: for maximal stimulatory dose / glucose-stimulated insulin secretion: NMRI mouse islets; for glucose-stimulated insulin secretion: 16.7 mmol/l, 10^−9-10^−3 mol/l
Procedure: Islet from 6-10 NMRI mice were isolated and incubated in the presence of 16.7 mmol/l and 10^−9-10^−3 mol/l stevioside or 10^−9-10^−3 mol/l steviol. The results of these tests are illustrated in FIGS. 4a and 4b where each column represents mean±SEM from 24 incubations of single islets. Black bars in FIG. 4a indicate that stevioside is present and hatched bars indicate that stevioside is absent. Black bars in FIG. 4b indicate that steviol is present and hatched bars indicate that steviol is absent. The influence of the maximal stimulatory doses of 10^−3 mol/l stevioside and 10^−6 mol/l steviol was studied in NMRI mouse islets over a range between 0 and 16.7 mmol/l glucose. […] Black bars in FIG. 7a indicate that stevioside is present and hatched bars indicate that stevioside is absent. Black bars in FIG. 7b indicate that steviol is present and hatched bars indicate that steviol is absent.

[4] = tested on: mice; conditions: mouse, in vivo; cited from earlier work
[5] = tested on: rats; experiment: intravenous administration to rats (earlier work of the inventors); format: in vivo, rat; conditions: i.v.
[6] = tested on: rats; conditions: rat, in vivo; cited from earlier work
[7] = tested on: hamsters; conditions: cited from earlier work
[8] = tested on: GK rats; experiment: blood pressure during 6 weeks treatment of GK rats with stevioside; format: in vivo, rat; conditions: 0.025 g/kg/24 h in drinking water, detectable after 2 weeks, then stable
Procedure: GK rats were treated with stevioside 0.025 g/kg body weight/24 h for 6 weeks. Stevioside was administered in the drinking water. GK rats receiving drinking water with 0.111 g D-glucose/kg body weight/24 h served as controls. Systolic (FIG. 6a, control: O-O series, stevioside-treated: (2)-(2) series) and diastolic (FIG. 6b, control: O-O series, stevioside-treated: (2)-(2) series) blood pressures were measured on the tail.

[9] = tested on: GK-rats; experiment: four-week test diets (stevioside and/or soy) in Goto-Kakizaki rats with glucose tolerance test; format: in vivo, rat; conditions: 4 weeks, p<0.05
Procedure: Four test diets (A: Standard carbohydrate rich laboratory animal diet (Altromin); n=12 (Alt). B: Altromin supplemented with stevioside (Altromin+Stevioside); n=12; (Alt+Ste). C: Soy plus 20% Altromin; n=12; (Soy). D: Soy plus 20% Altromin plus stevioside; n=12; (Soy+Ste)) were administered for four weeks to four groups of adult rats. Each experimental group consisted of twelve female Goto-Kakizaki wish an age of 9 weeks. The rats received the stevioside (0.025 g/kg body weight/day) with the drinking water. […] Plasma concentrations of glucose, insulin, and glucagon were measured during the glucose tolerance test. Immediately before the glucose tolerance test fasting levels of triglycerides and cholesterol were determined. Concomitantly, the systolic blood pressure was measured using a tail cuff. (Plasma glucose was measured using MPR 3, 166 391, Glucose/GOD-PAP Method from Boehringer Mannheim) (Plasma insulin was measured using Sensitive Rat Insulin RIA, Cat #SRI-13K from Linco) (Plasma glucagon was measured using Glucagon RIA. Cat #GL-32K from Linco) (Blood pressure was measured using TSE Non-Invasive Blood Pressure Monitoring System from Technical Scientific Equipment GmbK) (Plasma cholesterol was measured GOD-PAP from Roche and triglycerides was measured using GHOD-PAP from Roche)

[10] = rats; cited from earlier work
[11] = tested on: spontaneously hypertensive rats; conditions: cited from earlier work
[12] = tested on: GK rats; experiment: plasma glucagon during glucose tolerance test in GK rats; format: in vivo, rat; conditions: stevioside 0.2 g/kg i.v. bolus, glucose 2.0 g/kg
Procedure: During a glucose tolerance test, an intravenous bolus of stevioside of 0.2 g/kg body weight was injected in GK rats (the (2)-(2) serie (n=6)). GK rats receiving 0.9% saline intravenously served as controls (the O-O serie (n=6)). Glucose 2.0 g/kg body weight was administered as a bolus at timepoint 0 min. The plasma glucagon responses are shown as mean±SEM in FIGS. 5a (control) and 5b (GK). The plasma glucagon was suppressed in the stevioside treated GK rat.

[13] = tested on: hamsters; conditions: doses as high as 2.5 g/kg body weight/day; cited from earlier work
[14] = isolated perfused rat liver; cited from earlier work
[15] = tested on: F344 rats; conditions: cited from earlier work
[16] = stevioside infusion at normal blood glucose; format: in vivo; conditions: bolus or constant intravenous infusion
[17] = tested on: isolated normal pancreatic rat islets; conditions: 7 mmol/l D-glucose; stevioside 1.0 mmol/l; cited from earlier work
[18] = tested on: GK rats; experiment: i.v. glucose tolerance test with stevioside in GK rats (plasma glucose and insulin); format: in vivo, rat; conditions: 2.0 g glucose/kg + 0.2 g stevioside/kg i.v.
Procedure: In the following examples, the type II diabetic Goto-Kakizaki (GK) rats originated from Takeda Chemical Ind., Tokyo, Japan and were bred locally. As examples of the effects of a compound including the chemical formulas II, stevioside was tested on normal Wistar rats and on GK rats. 2.0 g glucose/kg body weight and 0.2 g stevioside/kg body weight were dissolved in 0.9% saline and infused intravenously. The plasma glucose and insulin levels were measured over a period of 2 hours. The results are shown in FIGS. 2a, 2b, 3a and 3b, were the O-O series (n=6 for Wistar and n=14 for GK) illustrate glucose infused alone and the (2)-(2) series (n=6 for Wistar and n=12 for GK) illustrate the combined glucose and stevioside infusion. Data are given as mean±SEM.

[19] = tested on: type II diabetic patients; experiment: acute paired cross-over test meal study with oral stevioside; format: in vivo, human; conditions: 1 g stevioside orally with standard meal
Description: Twelve type II diabetic patients (4 female/8 males) with a mean age of 65.8±1.6 years, a diabetes duration of 6.0±1.3 years, a mean body mass index of 28.5±1.0, and a mean glycated hemoglobin HbA1c of 7.4±0.4 percent were included in the study. The experiment was an acute, paired, cross-over study in which two test meals were served during the experiments (A: Standard meal supplemented with 1 g of stevioside given orally; B: Standard meal given together with 1 g of gelatine (placebo) given orally. The total energy content of the test meals was 1725 kJ (protein 16 E %, fat 30 E %, carbohydrate 54 E %). Blood samples were drawn from an antecubital vein 30 minutes before and 240 minutes after ingestion of the test meal. The arterial blood pressure was continuously monitored during the experiment. Students paired t-test was used for comparing the effects of stevioside with placebo on the parameters measured. Data are given as mean±SEM.

Structure (SMILES): C=C1C[C@@]23CC[C@H]4[C@@](C)(CCC[C@@]4(C)C(=O)O)[C@@H]2CC[C@]1(O)C3 [steviol]
- mutagenicity [1]: dose-related positive responses in some mutagenicity test
- mutagenic effect [2]: no mutagenic effect
- stimulation of insulin secretion compared with stevioside [3]: to a greater extent
- maximal stimulatory dose [3]: 10^−6 mol/l
- glucose-stimulated insulin secretion [3]: capable of potentiating glucose-stimulated insulin secretion
- LD50 [4]: higher than 15 g/kg body weight
- effect when administered intravenously to rats [5]: anti-hyperglycemic, glucagonostatic and insulinotropic effect
- LD50 [6]: higher than 15 g/kg body weight
- LD50 ([7]; hamster, in vivo): 5-6 g/kg body weight
- finding that accompanied lethality ([7]; hamsters, correlated to increases in blood urea nitrogen and creatinine): degeneration of the proximal tubular cells

Structure (SMILES): C=C1C[C@@]23CC[C@H]4[C@@](C)(CCC[C@@]4(C)C(=O)O[C@@H]4O[C@H](CO)[C@@H](O)[C@H](O)[C@H]4O)[C@@H]2CC[C@]1(O[C@@H]1O[C@H](CO)[C@@H](O)[C@H](O)[C@H]1O[C@@H]1O[C@H](CO)[C@@H](O)[C@H](O)[C@H]1O)C3 [stevioside]
- decrease in the blood pressure (systolic and diastolic, tail) [8]: 10-15%
- suppression of the systolic blood pressure (Δ), stevioside in combination with Altromin [9]: −28 mmHg
- suppression of the systolic blood pressure (Δ), stevioside in combination with soy [9]: −21 mmHg
- mutagenicity [1]: not mutagenic
- mutagenic effect [2]: no mutagenic effect
- maximal stimulatory dose [3]: 10^−3 mol/l
- glucose-stimulated insulin secretion [3]: capable of potentiating glucose-stimulated insulin secretion
- route of excretion [10]: excreted by the urine
- fall in the systolic blood pressure ([11]; 200 mg/kg intravenously (maximum hypotensive effect)): only small
- heart rate ([11]; intravenous stevioside): Neither the heart rate nor the plasma catecholamines were significantly changed
- plasma catecholamines ([11]; intravenous stevioside): Neither the heart rate nor the plasma catecholamines were significantly changed
- plasma glucagon [12]: suppressed
- effect on growth or reproduction [13]: no effect on growth or reproduction
- metabolism [14]: not metabolised
- carcinogenicity [15]: not carcinogenic
- hypoglycemia [16]: did not cause any hypoglycemia
- insulin output [17]: significant increase in insulin output
- time at which a significant decrease of plasma glucose was observed [18]: 30 min
- blood glucose response to intravenous glucose ([18]; 2 hours): inhibited blood glucose responses; also recorded: diminished glucose response
- insulin response ([18]; compared to the Wistar rat): pronounced increase in the insulin response
- effect when administered intravenously to rats [5]: anti-hyperglycemic, glucagonostatic and insulinotropic effect
- reduction of the postprandial blood glucose response compared to placebo ([19]; mean±SEM, p<0.004): 18±5%
- absolute IAUC of postprandial blood glucose ([19]; mean±SEM, p<0.02 vs placebo): 522±64 mmol/l×240 min
- postprandial glucagon like peptide-1 (GLP-1) levels ([19]; mean±SEM, p<0.045 vs placebo): 1529±296
- postprandial glucagon levels ([19]; mean±SEM, p=0.02 vs placebo): 281±33
- insulin response (IAUC) ([19]; p=0.09, not statistically significant): tended to stimulate the insulin response

Source: patent publication US9636314B2, “Medicament for treatment of non-insulin dependent diabetes mellitus, hypertension and/or metabolic syndrome” (Stevia Limited, priority 2001, dated 2017)
